Laboratory results from patent publication US5354913A, “Optically active phenol derivatives and preparation thereof” (Takeda Chemical Industries, Ltd., priority 1992, dated 1994).

Columns and labels:
[1] = test system: guinea-pig platelets; test: U-46619 (thromboxane A2 mimic)-induced aggregation in guinea-pig platelets (Experiment 1); assay type: cell-based; conditions: guinea-pig PRP, U-46619 3×10^-7 M
Method: Thromboxane A2 antagonistic activity Effect on thromboxane A2 minic (U-46619) - induced aggregation in guinea-pig platelets.
(§1) Method: Blood was collected in 3.15% sodium citrate (0.1 ml for 0.9 ml of blood) by aortic puncture from anesthetized guinea-pigs. Citrated blood samples were centrifuged at 950 rpm for 10 minutes and 2,000 rpm for 10 minutes at room temperature to obtain platelet-rich plasma (PRP) and platelet-poor plasma (PPP), respectively. The platelet count of PRP was adjusted to 5,000,000/μl with PPP. Platelet aggregation was measured with a photometer (Hematracer 6, Niko Bioscience, Japan). PRP (250 μl) was preincubated at 37° C. for 2 minutes and then incubated for 2 minutes with drug solution (25 μl), followed by stimulation with U-46619 (25 μl). Effect of drug was shown as the percent inhibition of maximal aggregation of drug-treated group versus that of control group. The concentration of U-46619 was chosen to obtain submaximal aggregation in each PRP (3×10^-7 M).

[2] = test system: human platelets; test: U-46619 (thromboxane A2 mimic)-induced aggregation in human platelets (Experiment 2); assay type: cell-based; conditions: Platelet, U-46619 10^-5 ~3×10^-5 M; for inhibition at 0.3 µM: 3 × 10^-7 M; for inhibition at 0.1 µM: 10^-7 M
Method: Thromboxane A2 antagonistic activity Effect on thromboxane A2 minic (U-46619) - induced aggregation in human platelets.
as §1, with “300,000/μl” for “5,000,000/μl”, “(10^-5 ~3×10^-5” for “(3×10^-7”

[3] = test system: U-46619 (TXA2 minic) - induced bronchoconstriction in guinea pig; test: Inhibitory effect on U-46619 (TXA2 mimic)-induced bronchoconstriction in guinea pig (Experiment 4); assay type: in vivo; conditions: orally 1 hour before U-46619 (10 μg/kg), p < 0.01 vs control group
Method: Inhibitory effect on U-46619 (TXA2 minic) - induced bronchoconstriction in guinea pig.
Method: Six male Hartley guinea pig were used per one group. The guinea pig anesthetized with urethane (1.5 g/kg, i.p.) was fixed in a dorsal position, subjected to tracheotomy and connected to a respirator through a cannula. A side branch of the tracheal cannula was connected to a respirator (Harvard apparatus rodent respirator Type 680) at the rate of 70 strokes/min. and a constant volume of 3 to 5 ml.
Inflation pressure was kept constant at 10 cm H2 O.
After treatment with gallamine triethiodide (1 mg/kg, i.v.), U-46619 (10 μg/kg) dissolved in a physiolosical saline solution was given through a carotid cannula and the airway resistance was measured by the overflow technique of Konzett-Rossler method (Konzett, H. and Rossler, R., Naunyn-Schmiedegerg's Arch, Exp. Path. Pharmak., 195, 71-74 (1940)). A test compound was suspended in 5% gum arabic solution and was administered orally 1 hour before the tratment with U-46619.

[4] = test system: rats; test: Oral toxicity in rats, 2 weeks; assay type: in vivo, rat; conditions: orally, 1000 mg/kg/day for 2 weeks, 3 rats
Method: Toxicity of the derivatives of the present invention is low. For example, in case that (R)-7-(4-fluorophenyl)-7-(5-hydroxy-6,7-dimethyl-l-oxoindan-4-yl)heptanoicacid was administered orally to 3 rats at a dose of 1000 mg/kg/day for 2 weeks, no rat died. The derivatives of the present invention can be safely administered orally or parenterally as they are or as pharmaceutical compositions of known forms obtained by admixing them with known pharmaceutically acceptable carriers, excipients and the like, for example, tablets, capsules (including soft capsules and micro-capsules), liquids, injection preparations, suppositories and the like, according to pharmaceutically acceptable methods. The dosage is varied according to patients, routes of administration, conditions of diseases to be treated and the like. However, in the case of oral administration to, for example, an adult patient, usually, a dose per one administration is about 0.1 to 20 mg/kg of the body weight, perferably, about 0.1 to 10 mg/kg of the body weight and, conveniently, the administration is carried out one to two times per day.

[5] = test system: guinea pig tracheal strip; test: Inhibitory effect on U-46619 (TXA2 mimic)-induced contraction in guinea pig tracheal strip (Experiment 3); conditions: Cavia porcellus; U-46619 10^-8 M; compound added 1 minute before; read-out: IC50 (Concentration for 50% inhibition)
Method: Inhibitory effect on U-46619 (TXA2 minic) - induced contraction in guinea pig tracheal strip
Method: Guinea pig tracheae were removed, and tracheal strips were prepared. Each strip was placed in a 10 ml organ bath containing Tyrode's solution aerated with 5% CO2 -95% O2 gas at 37° C. The tracheal strip was placed under resting tension of 1 g. The contractile response of the strip to thromboxane A2 minic U-46619 (10^-8 M) were examined. The strip was treated with the test compound for 1 minute before the addition of U-46619.
Result: The results are shown in Table 10 as the concentration for 50% inhibition (IC50).

| SMILES | % Inhibition of aggregation ([1]; 3 × 10^-8 M) | % Inhibition of aggregation ([1]; 10^-7 M) | % Inhibition of aggregation ([1]; 10^-8 M) | inhibition at 0.3 µM [2] | inhibition at 0.1 µM [2] | % Inhibition ([3]; 0.31 mg/kg) | % Inhibition ([3]; 1.25 mg/kg) | mortality [4] | inhibition at 0.3 µM ([1]; Cavia porcellus, Platelet, 3 × 10^-7 M) | inhibition at 0.03 µM ([2]; 3 × 10^-8 M) | inhibition at 0.01 µM ([2]; 10^-8 M) | IC50 [5] |
| --- | --- | --- | --- | --- | --- | --- | --- | --- | --- | --- | --- | --- |
| Cc1c(C)c(CO)c(C)c([C@H](CCCCCC(=O)O)c2ccc(F)cc2)c1O [Compound 20, (R)-7-(4-fluorophenyl)-7-(2-hydroxy-5-hydroxylmethyl-3,4,6-trimethylphenyl)heptanoic acid] | 12% | 77% | 3% | 100% | 48% |  |  |  |  |  |  |  |
| Cc1c(C)c2c(c([C@H](CCCCCC(=O)O)c3ccc(F)cc3)c1O)CCC2=O [Compound 28, (R)-7-(4-fluorophenyl)-7-(5-hydroxy-6,7-dimethyl-1-oxoindan-4-yl)heptanoic acid] | 5% | 36% | 0% | 100% | 78% | 84% | 84% | no rat died | 89% | 30% | 13% | 0.7 nM |
